Where no end group is shown, it is not given here.
Details: rats, lung instillation, 10 μg salmon calcitonin + 1 mg FCIGRL vs 10 μg salmon calcitonin alone
Description: An aqueous saline solution containing 10 μg of salmon calcitonin was instilled into the lungs of rats and serum calcitonin levels were measured by ELISA. An aqueous saline solution containing 10 μg of salmon calcitonin and 1 mg of the tight junction agonist peptide FCIGRL was instilled into the lungs of rats and serum calcitonin levels were measured by ELISA.

In the case of FCIGRL [FCIGRL], the “increase in area under the curve (AUC) of serum calcitonin” value is reported as “approximately 10.6 fold” and the “increase in observed peak serum calcitonin levels” value is reported as “approximately three-fold”.
